# Laboratory results published in patent US11497731B2, “β-lactamase inhibitor” (NATIONAL UNIVERSITY CORPORATION TOKAI NATIONAL HIGHER …, priority 2018, dated 2022).
# Like-named read-outs stand apart in the source and are kept apart here.
# Key:
# VIM-2 = VIM-2 (Escherichia coli, UniProt Q5U7L7); assay: Inhibition constant (Ki) measurement test, VIM-2; format: biochemical
# Protocol: (§1) The inhibition constant (Ki) measurement test was performed in the following manner. The inhibition constant (Ki) was measured using various metallo-β-lactamases (final concentration: 10 nM). The imipenem decomposition activity (Δabs/min) at each point under the conditions of absorbance: 298 nm and temperature: 30° C. was measured by varying the concentration of imipenem as a substrate and the concentrations of test substances (compounds A to E) as inhibitors. Each measured value was fitted to the Lineweaver-Burk plot equation to calculate Ki.
# (§2) The test was performed in the same manner as in Test Example 6, except that X2a, X2b, X2c, X2d, X3a, and X4 were used as test substances (inhibitors).
# IMP-1 = IMP-1 (Serratia marcescens, UniProt P52699); assay: Inhibition constant (Ki) measurement test, IMP-1; format: biochemical
# Protocol: as §1, §2
# NDM-1 = NDM-1 (Klebsiella pneumoniae, UniProt C7C422); assay: Inhibition constant (Ki) measurement test, NDM-1; format: biochemical
# Protocol: as §1, §2
# [1] = test system: bacteria into which a plasmid encoding NDM-1 was introduced (pBCSK (+)/E. coli DH5a); assay: Drug susceptibility test (MIC), NDM-1-producing strain; format: cell-based; conditions: for MIC: Escherichia coli; for Meropenem MIC NDM-1-producing strain: MIC of meropenem with inhibitor 10 μg/mL
# Protocol: (§3) Plates for drug susceptibility test measurement were prepared by using 96- or 384-well U-bottom plates, a Mueller-Hinton liquid medium, and antimicrobial drugs (ceftazidime (CAZ), imipenem (IPM), meropenem (MPM), doripenem (DPM), and biapenem (BPM)). A 1/2 antimicrobial drug dilution series was made up to well 11 of, for example, a 96-well U-bottom plate so that the leftmost well 1 of row A contained an antimicrobial drug at the maximum concentration, the antimicrobial drug concentration in well 2 to the right of well 1 was 1/2 of the maximum concentration, the antimicrobial drug concentration in well 3 to the right of well 2 was 1/4 of the maximum concentration, and so on. […] An antimicrobial drug dilution series was made in each of rows B and C in the same manner as in row A. Further, 10 μg/mL and 50 μg/mL of a test substance (compound A) were added to row B and row C, respectively (FIG. 1).
# (§4) Bacteria into which a plasmid encoding a class B β-lactamase (metallo-β-lactamase (MBL): NDM-1, or VIM-2) was introduced (pBCSK (+)/E. coli DH5a) were used as test bacteria. The test bacteria were adjusted to 10^8 cfu/mL with a Mueller-Hinton medium. Further, the test bacteria were diluted 10-fold with a Mueller-Hinton medium (10^7 cfu/mL). 5 μl of the test bacteria was collected and inoculated into the plates for drug susceptibility test measurement. After overnight culture at 35° C., the growth of the test bacteria was visually checked. The concentration of the antimicrobial drug in a well containing the lowest concentration of the antimicrobial drug among the wells in which no growth of the test bacteria was confirmed was defined as the minimal inhibitory concentration value (FIG. 1).
# (§5) The drug susceptibility test was performed in the same manner as in Test Example 1, except that compounds A to C and E to I were used as test substances.
# (§6) The test was performed in the same manner as in Test Example 1, except that X2a, X2b, X2c, X2d, X3a, and X4 were used as test substances (inhibitors). The inhibitor concentration was 10 μg/mL.
# [2] = test system: bacteria into which a plasmid encoding IMP-1 was introduced (pBCSK (+)/E. coli DH5a); assay: Drug susceptibility test (MIC), IMP-1-producing strain; format: cell-based; conditions: for MIC: Escherichia coli; for Meropenem MIC IMP1-producing strain: MIC of meropenem with inhibitor 10 μg/mL
# [3] = test system: bacteria into which a plasmid encoding VIM-2 was introduced (pBCSK (+)/E. coli DH5a); assay: Drug susceptibility test (MIC), VIM-2-producing strain; format: cell-based; conditions: for MIC: Escherichia coli; for Ceftazidime MIC VIM-2-producing strain: MIC of ceftazidime with inhibitor 10 μg/mL
# Protocol: as §3, §4, §5, §6
# [4] = test system: Empty vector (no class B lactamase produced), pBCSK (+)/E. coli DH5a; assay: Drug susceptibility test (MIC), empty vector strain; format: cell-based; conditions: Escherichia coli
# [5] = test system: β-lactamase-producing bacteria; assay: Drug susceptibility tests, summary statements over all strains; format: cell-based, E. coli; conditions: addition of the compound
# Protocol: as §3, §4
# β-lactamase = assay: Inhibition constant (Ki) tests, summary statements over all enzymes; format: biochemical
# Protocol: as §1, §2
# [6] = target: metallo-β-lactamase (IMP-1) (Serratia marcescens, UniProt P52699); assay: Enzyme activity measurement test (imipenem decomposition); format: biochemical
# Protocol: A metallo-β-lactamase (IMP-1) (final concentration: 10 nM), and imipenem (final concentration: 100 μM) as a substrate were used. The imipenem decomposition activity (Dabs/min) at each point under the conditions of absorbance: 298 nm and temperature: 30° C. was measured by varying the concentrations of test substances (compounds Nos. 9-7, 9-8, and 9-9) as inhibitors (0 μM, 10 μM, and 100 μM). The activity when no test substance was added was defined as 100%, and the relative activity value when each test substance was individually added was calculated.
# [7] = imipenem substrate, enzyme 10 nM, 30° C., Lineweaver-Burk, read-out: Inhibition constant Ki VIM-2
# [8] = imipenem substrate, enzyme 10 nM, 30° C., Lineweaver-Burk, read-out: Inhibition constant Ki IMP-1
# [9] = imipenem substrate, enzyme 10 nM, 30° C., Lineweaver-Burk, read-out: Inhibition constant Ki NDM-1
# [10] = meropenem alone, no test substance added, Table 2
# [11] = Test Example 11, same manner as Test Example 6, read-out: Enzymatic Inhibition Effect Ki VIM-2
# [12] = Test Example 11, same manner as Test Example 6, read-out: Enzymatic Inhibition Effect Ki IMP-1
# [13] = Test Example 11, same manner as Test Example 6, read-out: Enzymatic Inhibition Effect Ki NDM-1
# Chain of metallo-β-lactamase (IMP-1) (P52699 19-246, looked up, species assumed): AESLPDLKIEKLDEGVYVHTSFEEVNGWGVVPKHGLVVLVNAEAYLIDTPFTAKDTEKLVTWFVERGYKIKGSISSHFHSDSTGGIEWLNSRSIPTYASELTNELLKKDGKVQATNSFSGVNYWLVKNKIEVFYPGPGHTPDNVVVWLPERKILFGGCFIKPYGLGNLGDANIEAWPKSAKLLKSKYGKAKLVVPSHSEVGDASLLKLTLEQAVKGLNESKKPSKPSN
# Chain of IMP-1 (P52699 19-246, looked up, species assumed): as above
# Chain of NDM-1 (C7C422 29-270, looked up, species assumed): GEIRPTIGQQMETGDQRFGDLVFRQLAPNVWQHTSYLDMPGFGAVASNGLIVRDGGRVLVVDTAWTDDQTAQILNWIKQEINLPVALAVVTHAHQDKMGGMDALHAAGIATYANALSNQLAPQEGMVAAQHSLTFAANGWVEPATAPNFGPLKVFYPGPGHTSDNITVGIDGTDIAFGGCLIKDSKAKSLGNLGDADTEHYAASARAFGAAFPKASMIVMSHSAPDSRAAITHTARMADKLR
structure (smiles),measurement,setting,value
Cc1c(C(=O)O)c(S(N)(=O)=O)c(C)n1C [Compound E],Ki,VIM-2; [7],420 nM
same,Ki,IMP-1; [8],1230 nM
same,Ki,NDM-1; [9],9080 nM
CCCc1oc(CCC)c(S(N)(=O)=O)c1C(=O)O [Compound G],Ki,VIM-2; [7],460 nM
same,Ki,IMP-1; [8],380 nM
same,Ki,NDM-1; [9],290 nM
"C[C@@H](O)[C@H]1C(=O)N2C(C(=O)O)=C(S[C@@H]3CN[C@H](C(=O)N(C)C)C3)[C@H](C)[C@H]12 [MPM, meropenem, reference compound]",MIC,"[1]; read-out: Meropenem MIC NDM-1-producing strain, No inhibitor",4 µg/mL
same,"MIC NDM-1 meropenem, None",[1]; [10],64 mg I^−1
same,MIC,[2]; read-out: MIC MPM,0.5 µg/mL
same,MIC,"[2]; read-out: Meropenem MIC IMP1-producing strain, No inhibitor",2 µg/mL
same,"MIC IMP-1 meropenem, None",[2]; [10],1 mg I^−1
same,MIC,[3]; read-out: MIC MPM,0.063 µg/mL
same,MIC,[4]; read-out: MIC MPM,0.016 µg/mL
NS(=O)(=O)c1sc(Cl)cc1C(=O)O [C],Ki,VIM-2; [7],2290 nM
same,Ki,IMP-1; [8],19100 nM
same,Ki,NDM-1; [9],19300 nM
"CC(C)(O/N=C(\C(=O)N[C@@H]1C(=O)N2C(C(=O)[O-])=C(C[n+]3ccccc3)CS[C@H]12)c1csc(N)n1)C(=O)O [CAZ, ceftazidime, reference compound]",MIC,[1]; read-out: MIC CAZ,> 1020 µg/mL
same,MIC,[2]; read-out: MIC CAZ,256 µg/mL
same,MIC,"[3]; read-out: Ceftazidime MIC VIM-2-producing strain, No inhibitor",16 µg/mL
same,MIC,[3]; read-out: MIC CAZ,4 µg/mL
same,"MIC VIM-2 ceftazidime, None","[3]; ceftazidime alone, no test substance added, Table 2",16 mg I^−1
same,MIC,[4]; read-out: MIC CAZ,0.25 µg/mL
CCc1c(S(N)(=O)=O)c(C(=O)O)c(C)n1C [Compound X2b],Ki,VIM-2; [11],100 nM
same,Ki,IMP-1; [12],980 nM
same,Ki,NDM-1; [13],1730 nM
same,Meropenem MIC NDM-1-producing strain,[1],0.0625 µg/mL
same,"effect on MICs of the antimicrobial drugs (statement on Tables 1, 2, 4)",[5],decreases the MICs
same,Meropenem MIC IMP1-producing strain,[2],0.031 µg/mL
same,Ceftazidime MIC VIM-2-producing strain,[3],1 µg/mL
same,"β-lactamase activity inhibition (statement on Tables 2, 5)",β-lactamase,inhibits β-lactamase activity
Cc1oc(C)c(S(=O)(=O)N2CCC(C)(C)C2)c1C(=O)O [9-8],β-lactamase activity inhibition (statement on Table 3),[6],inhibits β-lactamase activity
NS(=O)(=O)c1c(C2CCCC2)oc(C2CCCC2)c1C(=O)O [Compound H],Ki,VIM-2; [7],760 nM
same,Ki,IMP-1; [8],1270 nM
same,Ki,NDM-1; [9],180 nM
CCc1ccccc1CNS(=O)(=O)c1c(C)oc(C)c1C(=O)O [9-9],β-lactamase activity inhibition (statement on Table 3),[6],inhibits β-lactamase activity
Cc1oc(C)c(S(=O)(=O)N2CC3CCCC3C2)c1C(=O)O (centres unmarked) [9-7],β-lactamase activity inhibition (statement on Table 3),[6],inhibits β-lactamase activity
Cc1c(C(=O)O)c(S(N)(=O)=O)c(C)n1-c1ccccc1 [Compound D],Ki,VIM-2; [7],20800 nM
same,Ki,IMP-1; [8],7510 nM
same,Ki,NDM-1; [9],10200 nM
NS(=O)(=O)c1sccc1C(=O)O [B],Ki,VIM-2; [7],15500 nM
same,Ki,IMP-1; [8],34100 nM
same,Ki,NDM-1; [9],7680 nM
CCc1c(C(=O)O)c(S(N)(=O)=O)c(C(C)C)n1C [Compound X4],Ki,VIM-2; [11],17 nM
same,Ki,IMP-1; [12],900 nM
same,Ki,NDM-1; [13],4300 nM
same,Meropenem MIC NDM-1-producing strain,[1],0.5 µg/mL
same,"effect on MICs of the antimicrobial drugs (statement on Tables 1, 2, 4)",[5],decreases the MICs
same,Meropenem MIC IMP1-producing strain,[2],0.031 µg/mL
same,Ceftazidime MIC VIM-2-producing strain,[3],1 µg/mL
same,"β-lactamase activity inhibition (statement on Tables 2, 5)",β-lactamase,inhibits β-lactamase activity
CCc1c(C(=O)O)c(S(N)(=O)=O)c(-c2ccccc2)n1C [Compound X2c],Ki,VIM-2; [11],19 nM
same,Ki,IMP-1; [12],1240 nM
same,Ki,NDM-1; [13],1500 nM
same,Meropenem MIC NDM-1-producing strain,[1],0.5 µg/mL
same,"effect on MICs of the antimicrobial drugs (statement on Tables 1, 2, 4)",[5],decreases the MICs
same,Meropenem MIC IMP1-producing strain,[2],0.031 µg/mL
same,Ceftazidime MIC VIM-2-producing strain,[3],1 µg/mL
same,"β-lactamase activity inhibition (statement on Tables 2, 5)",β-lactamase,inhibits β-lactamase activity
CCc1c(C(=O)O)c(S(N)(=O)=O)c(CC)n1N [Compound X3a],Ki,VIM-2; [11],1970 nM
same,Ki,IMP-1; [12],21400 nM
same,Ki,NDM-1; [13],22100 nM
same,Meropenem MIC NDM-1-producing strain,[1],0.5 µg/mL
same,"effect on MICs of the antimicrobial drugs (statement on Tables 1, 2, 4)",[5],decreases the MICs
same,Meropenem MIC IMP1-producing strain,[2],0.031 µg/mL
same,Ceftazidime MIC VIM-2-producing strain,[3],4 µg/mL
same,"β-lactamase activity inhibition (statement on Tables 2, 5)",β-lactamase,inhibits β-lactamase activity
CCc1c(C(=O)O)c(S(N)(=O)=O)c(C)n1C [Compound X2a],Ki,VIM-2; [11],23 nM
same,Ki,IMP-1; [12],1770 nM
same,Ki,NDM-1; [13],1830 nM
same,Meropenem MIC NDM-1-producing strain,[1],0.0625 µg/mL
same,"effect on MICs of the antimicrobial drugs (statement on Tables 1, 2, 4)",[5],decreases the MICs
same,Meropenem MIC IMP1-producing strain,[2],0.031 µg/mL
same,Ceftazidime MIC VIM-2-producing strain,[3],1 µg/mL
same,"β-lactamase activity inhibition (statement on Tables 2, 5)",β-lactamase,inhibits β-lactamase activity
CCc1oc(CC)c(S(N)(=O)=O)c1C(=O)O [Compound F],Ki,VIM-2; [7],1010 nM
same,Ki,IMP-1; [8],300 nM
same,Ki,NDM-1; [9],920 nM
